Assay results from ChEMBL document CHEMBL1201862, “PubChem BioAssay data set” (2004).
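Assay format: 96-well plates, 48-hour exposure. At the GI50, growth is halved.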 Active and inactive are the calls of the source. No stated cut-off is given here; in the data, active = GI50 up to about 1.1 µM and inactive = higher.

What was measured:
Assay in all cases: inhibition of tumour cell growth, NCI panel, 48 h
[1] = system: HT-29
[2] = system: OVCAR-5
[3] = system: NCI/ADR-RES
[4] = system: SF-539
[5] = system: UACC-257
[6] = system: 786-0
[7] = system: SNB-75
[8] = system: U-251
[9] = system: UACC-62
[10] = system: A498
[11] = system: NCI-H460
[12] = system: HCT-15
[13] = system: PC-3
[14] = system: OVCAR-3
[15] = system: IGROV-1
[16] = system: TK-10
[17] = system: HCT-116
[18] = system: RPMI-8226
[19] = system: OVCAR-8
[20] = system: T47D
[21] = system: SR
[22] = system: SK-MEL-2
[23] = system: COLO 205
[24] = system: BT-549
[25] = system: CCRF-CEM
[26] = system: SK-OV-3
[27] = system: CAKI-1
[28] = system: DU-145
[29] = system: NCI-H522
[30] = system: M14
[31] = system: RXF 393
[32] = system: SNB-19
[33] = system: EKVX
[34] = system: MDA-MB-231
[35] = system: HCC 2998
[36] = system: MCF7
[37] = system: NCI-H23
[38] = system: KM12
[39] = system: SF-295
[40] = system: A549
[41] = system: UO-31
[42] = system: HOP-62
[43] = system: K562
[44] = system: LOX IMVI
[45] = system: SK-MEL-5
[46] = system: SW-620
[47] = system: SK-MEL-28
[48] = system: Malme-3M
[49] = system: NCI-H226
[50] = system: MOLT-4
[51] = system: HL-60
[52] = system: SF-268
[53] = system: SN12C
[54] = system: Hs-578T
[55] = system: MDA-MB-435
[56] = system: ACHN

Compound: O=C1c2cc3c(cc2CC12Cc1cc4c(cc1C2=O)CCC4)CCC3
- GI50 [1]: > 100 µM (inactive)
- GI50 [2]: 48.3 µM (inactive)
- GI50 [3]: > 100 µM (inactive)
- GI50 [4]: > 100 µM (inactive)
- GI50 [5]: > 100 µM (inactive)
- GI50 [6]: > 100 µM (inactive)
- GI50 [7]: > 100 µM (inactive)
- GI50 [8]: > 100 µM (inactive)
- GI50 [9]: > 100 µM (inactive)
- GI50 [10]: > 100 µM (inactive)
- GI50 [11]: > 100 µM (inactive)
- GI50 [12]: > 100 µM
- GI50 [13]: > 100 µM (inactive)
- GI50 [14]: > 100 µM (inactive)
- GI50 [15]: > 100 µM (inactive)
- GI50 [16]: > 100 µM (inactive)
- GI50 [17]: > 100 µM (inactive)
- GI50 [18]: > 100 µM (inactive)
- GI50 [19]: > 100 µM (inactive)
- GI50 [20]: > 100 µM (inactive)
- GI50 [21]: > 100 µM (inactive)
- GI50 [22]: > 100 µM (inactive)
- GI50 [23]: > 100 µM (inactive)
- GI50 [24]: > 100 µM (inactive)
- GI50 [25]: > 100 µM (inactive)
- GI50 [26]: > 100 µM (inactive)
- GI50 [27]: > 100 µM (inactive)
- GI50 [28]: > 100 µM (inactive)
- GI50 [29]: > 100 µM (inactive)
- GI50 [30]: 14.4 µM (inactive)
- GI50 [31]: 21.8 µM (inactive)
- GI50 [32]: > 100 µM (inactive)
- GI50 [33]: > 100 µM (inactive)
- GI50 [34]: > 100 µM (inactive)
- GI50 [35]: > 100 µM (inactive)
- GI50 [36]: > 100 µM (inactive)
- GI50 [37]: > 100 µM (inactive)
- GI50 [38]: > 100 µM (inactive)
- GI50 [39]: > 100 µM (inactive)
- GI50 [40]: > 100 µM (inactive)
- GI50 [41]: > 100 µM (inactive)
- GI50 [42]: > 100 µM (inactive)
- GI50 [43]: > 100 µM (inactive)
- GI50 [44]: > 100 µM (inactive)
- GI50 [45]: > 100 µM (inactive)
- GI50 [46]: > 100 µM (inactive)
- GI50 [47]: > 100 µM (inactive)
- GI50 [48]: > 100 µM (inactive)
- GI50 [49]: > 100 µM (inactive)
- GI50 [50]: > 100 µM (inactive)
- GI50 [51]: > 100 µM (inactive)
- GI50 [52]: > 100 µM (inactive)
- GI50 [53]: > 100 µM (inactive)
- GI50 [54]: > 100 µM (inactive)
- GI50 [55]: > 100 µM (inactive)
- GI50 [56]: > 100 µM (inactive)
